Experimental data published in patent US8742117B2, “Oxime derivatives” (Cadila Healthcare Limited, priority 2008, dated 2014).

How the values were obtained:
human GPR 119 receptor = molecular target: T1, human GPR 119 receptor (Homo sapiens, UniProt Q8TDV5); experiment: cAMP assay in stable cell line expressing recombinant human GPR 119 receptor; format: cell-based; details: intracellular cAMP, recombinant human GPR 119 cell line
T1 construct: expressed in transfected cells
T1 sequence (Q8TDV5 1-335): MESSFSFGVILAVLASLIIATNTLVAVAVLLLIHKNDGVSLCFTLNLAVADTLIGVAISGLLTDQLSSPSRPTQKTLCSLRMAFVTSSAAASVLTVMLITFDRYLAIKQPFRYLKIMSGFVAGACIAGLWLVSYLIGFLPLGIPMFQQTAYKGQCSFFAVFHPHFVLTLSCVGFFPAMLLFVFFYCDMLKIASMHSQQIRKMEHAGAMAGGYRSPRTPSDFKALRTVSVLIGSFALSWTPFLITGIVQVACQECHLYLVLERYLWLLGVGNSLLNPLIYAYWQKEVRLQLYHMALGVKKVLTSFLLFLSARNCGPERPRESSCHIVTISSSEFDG
From the text: A stable cell line expressing recombinant human GPR 119 receptor was established and used to investigate the efficacy of the compounds of the invention based on the intracellular levels of cyclic AMP (cAMP) using commercially available cAMP kits. Compounds of the invention produced a concentration dependent increase in cAMP level and EC50 values of representative compounds were provided in table 1 and table 2 respectively.

Sprague Dawley rats = experiment: Feed intake in Sprague Dawley rats; format: in vivo, rat; details: 25 mg/kg i.p., cumulative feed intake vs vehicle control
From the text: In Vivo Efficacy Studies: Feed Intake in Sprague Dawley Rats:
Sprague Dawley rats of 6-8 week age were be used for this experiment they were be kept for acclimatization in reversed light/dark cycle for 15 days. Animals will have free access to a standard chow diet and water during acclimatization period. After 15 days reversed light/dark cycle acclimatization animals were trained for fasting induced feed intake for 5 days till they show consistent feed intake. Grouping was done based on the monitored feed intake the training days. On treatment day each group of animals were dosed with test compound or vehicle by appropriate routes of administration (orally or intraperitoneally). Exactly 30 min. after treatment, measured amount of standard chow diet was provided and recorded as 0-min feed offered. Then subsequently 2, 4, 6 and 24 hour after 0-min, feed intake was measured and the cumulative feed intakes were calculated. The change in cumulative feed intake as compare to vehicle treated control at each time point was calculated for test compound and results were provided in table 2

| SMILES | % activity at 1 μM (human GPR 119 receptor) | further results |
| --- | --- | --- |
| Cc1c(ON=C(c2ccccc2)c2ccccc2)ncnc1N1CCC(c2nc(C(C)C)no2)CC1 [Example 20, Benzophenone O-6-(4-(3-isopropyl-1,2,4-oxadiazol-5-yl)piperidin-1-yl)-5-methylpyrimidin-4-yl oxime] | 24.55% |  |
| CC(=NOc1ncnc(N2CCC(c3nc(C(C)C)no3)CC2)c1[N+](=O)[O-])c1ccc(S(C)(=O)=O)cc1 [Example 11, 1-(4-(methylsulfonyl)phenyl)ethanone O-6-(4-(3-isopropyl-1,2,4-oxadiazol-5-yl)piperidin-1-yl)-5-nitropyrimidin-4-yl oxime] | 103.98% | % reduction in food in take 2 hour (Sprague Dawley rats): 76.2%; % reduction in food in take 4 hour (Sprague Dawley rats): 43.1%; % reduction in food in take 6 hour (Sprague Dawley rats): 36%; % reduction in food in take 24 hour (Sprague Dawley rats): 17% |
| CC(=NOc1ncnc(N2CCC(c3nc(C(C)C)no3)CC2)c1C)c1ccc2c(c1)OCO2 [Example 5, 1-(benzo[d][1,3]dioxol-5-yl)ethanone O-6-(4-(3-isopropyl-1,2,4-oxadiazol-5-yl)piperidin-1-yl)-5-methylpyrimidin-4-yl oxime] | 58.37% | % reduction in food in take 2 hour (Sprague Dawley rats): 39%; % reduction in food in take 4 hour (Sprague Dawley rats): 40%; % reduction in food in take 6 hour (Sprague Dawley rats): 31%; % reduction in food in take 24 hour (Sprague Dawley rats): 8.2% |
| CC(=NOc1ncnc(N2CCC(c3nc(C(C)C)no3)CC2)c1[N+](=O)[O-])c1ccc(C)cc1 [Example 2, 1-p-tolylethanone O-6-(4-(3-isopropyl-1,2,4-oxadiazol-5-yl)piperidin-1-yl)-5-nitropyrimidin-4-yl oxime] | 37.75% |  |
| CC(=NOc1ncnc(N2CCC(c3nc(C(C)C)no3)CC2)c1[N+](=O)[O-])c1ccc(OC(F)(F)F)cc1 [Example 13, 1-(4-(trifluoromethoxy)phenyl)ethanone O-6-(4-(3-isopropyl-1,2,4-oxadiazol-5-yl)piperidin-1-yl)-5-nitropyrimidin-4-yl oxime] | 93.76% | EC50 (human GPR 119 receptor): 242 nM |
| CC(=NOc1ncnc(N2CCC(c3nc(C(C)C)no3)CC2)c1[N+](=O)[O-])c1ccccc1 [Example 33, Acetophenone O-6-(4-(3-isopropyl-1,2,4-oxadiazol-5-yl)piperidin-1-yl)-5-nitropyrimidin-4-yl oxime] | 59.34% |  |
| CC(=NOc1ncnc(N2CCC(c3nc(C(C)C)no3)CC2)c1C)c1ccc(S(C)(=O)=O)cc1 [Example 3, 1-(4-(methylsulfonyl)phenyl)ethanone O-6-(4-(3-isopropyl-1,2,4-oxadiazol-5-yl)piperidin-1-yl)-5-methylpyrimidin-4-yl oxime] | 73.40% |  |
| CCCCC(=NOc1ncnc(N2CCC(c3nc(C(C)C)no3)CC2)c1C)c1ccccc1 [Example 30, 1-phenylpentan-1-one O-6-(4-(3-isopropyl-1,2,4-oxadiazol-5-yl)piperidin-1-yl)-5-methylpyrimidin-4-yl oxime] | 24.65% |  |
| CC(=NOc1ncnc(N2CCC(c3nc(C(C)C)no3)CC2)c1[N+](=O)[O-])c1ccc2c(c1)CCCC2 [Example 18, 1-(5,6,7,8-tetrahydronaphthalen-2-yl)ethanone O-6-(4-(3-isopropyl-1,2,4-oxadiazol-5-yl)piperidin-1-yl)-5-nitropyrimidin-4-yl oxime] | 31.37% |  |
| CC(C)c1noc(C2CCN(c3ncnc(ON=C(c4ccc(F)cc4)c4ccc(F)cc4)c3[N+](=O)[O-])CC2)n1 [Example 31, bis(4-fluorophenyl)methanone O-6-(4-(3-isopropyl-1,2,4-oxadiazol-5-yl)piperidin-1-yl)-5-nitropyrimidin-4-yl oxime] | 12.18% |  |
| CC(=NOc1ncnc(N2CCC(c3nc(C(C)C)no3)CC2)c1C)c1ccc2c(c1)CCCC2 [Example 17, 1-(5,6,7,8-tetrahydronaphthalen-2-yl)ethanone O-6-(4-(3-isopropyl-1,2,4-oxadiazol-5-yl)piperidin-1-yl)-5-methylpyrimidin-4-yl oxime] | 29.24% |  |
| CC(=NOc1ncnc(N2CCC(c3nc(C(C)C)no3)CC2)c1[N+](=O)[O-])c1cc2ccccc2o1 [Example 1, 1-(benzofuran-2-yl)ethanone O-6-(4-(3-isopropyl-1,2,4-oxadiazol-5-yl)piperidin-1-yl)-5-nitropyrimidin-4-yl oxime] | 62.46% | EC50 (human GPR 119 receptor): 802 nM |
| CC(=NOc1ncnc(N2CCC(c3nc(C(C)C)no3)CC2)c1C)c1ccc2ccccc2c1 [Example 22, 1-(naphthalen-2-yl)ethanone O-6-(4-(3-isopropyl-1,2,4-oxadiazol-5-yl)piperidin-1-yl)-5-methylpyrimidin-4-yl oxime] | 18.5% | % reduction in food in take 2 hour (Sprague Dawley rats): 30%; % reduction in food in take 4 hour (Sprague Dawley rats): 43%; % reduction in food in take 6 hour (Sprague Dawley rats): 44%; % reduction in food in take 24 hour (Sprague Dawley rats): 14% |
| CC(=NOc1ncnc(N2CCC(c3nc(C(C)C)no3)CC2)c1C)c1cccnc1 [Example 12, 1-(pyridin-3-yl)ethanone O-6-(4-(3-isopropyl-1,2,4-oxadiazol-5-yl)piperidin-1-yl)-5-methylpyrimidin-4-yl oxime] | 20.32% |  |
| CCCCC(=NOc1ncnc(N2CCC(c3nc(C(C)C)no3)CC2)c1[N+](=O)[O-])c1ccccc1 [Example 26, 1-phenylpentan-1-one O-6-(4-(3-isopropyl-1,2,4-oxadiazol-5-yl)piperidin-1-yl)-5-nitropyrimidin-4-yloxime] | 10.2% |  |
| CC(=NOc1ncnc(N2CCC(c3nc(C(C)C)no3)CC2)c1[N+](=O)[O-])c1ccc(-c2ccccc2)cc1 [Example 25, 1-(biphenyl-4-yl)ethanone O-6-(4-(3-isopropyl-1,2,4-oxadiazol-5-yl)piperidin-1-yl)-5-nitropyrimidin-4-yl oxime] | 32.0% |  |
| COc1ccc(C(C)=NOc2ncnc(N3CCC(c4nc(C(C)C)no4)CC3)c2[N+](=O)[O-])cc1 [Example 7, 1-(4-methoxyphenyl)ethanone O-6-(4-(3-isopropyl-1,2,4-oxadiazol-5-yl)piperidin-1-yl)-5-nitropyrimidin-4-yl oxime] | 88.99% | % reduction in food in take 2 hour (Sprague Dawley rats): 53.5%; % reduction in food in take 4 hour (Sprague Dawley rats): 42%; % reduction in food in take 6 hour (Sprague Dawley rats): 36%; % reduction in food in take 24 hour (Sprague Dawley rats): 12.9% |
| CC(=NOc1ncnc(N2CCC(c3nc(C(C)C)no3)CC2)c1[N+](=O)[O-])c1ccc2ccccc2c1 [Example 23, 1-(naphthalen-2-yl)ethanone O-6-(4-(3-isopropyl-1,2,4-oxadiazol-5-yl)piperidin-1-yl)-5-nitropyrimidin-4-yl oxime] | 17.7% | % reduction in food in take 2 hour (Sprague Dawley rats): 38%; % reduction in food in take 4 hour (Sprague Dawley rats): 26%; % reduction in food in take 6 hour (Sprague Dawley rats): 26%; % reduction in food in take 24 hour (Sprague Dawley rats): 4% |
| CC(=NOc1ncnc(N2CCC(c3nc(C(C)C)no3)CC2)c1C)c1ccccc1 [Example 32, Acetophenone O-6-(4-(3-isopropyl-1,2,4-oxadiazol-5-yl)piperidin-1-yl)-5-methylpyrimidin-4-yloxime] | 32.16% |  |
| CC(=NOc1ncnc(N2CCC(c3nc(C(C)C)no3)CC2)c1C)c1cc2ccccc2o1 [Example 19, 1-(benzofuran-2-yl)ethanone O-6-(4-(3-isopropyl-1,2,4-oxadiazol-5-yl)piperidin-1-yl)-5-methylpyrimidin-4-yl oxime] | 40.68% |  |
| CC(=NOc1ncnc(N2CCC(c3nc(C(C)C)no3)CC2)c1C)c1ccc(-c2ccccc2)cc1 [Example 24, 1-(biphenyl-4-yl)ethanone O-6-(4-(3-isopropyl-1,2,4-oxadiazol-5-yl)piperidin-1-yl)-5-methylpyrimidin-4-yl oxime] | 8.7% |  |
| CC(C)c1noc(C2CCN(c3ncnc(ON=C(c4ccccc4)c4ccccc4)c3[N+](=O)[O-])CC2)n1 [Example 21, Benzophenone O-6-(4-(3-isopropyl-1,2,4-oxadiazol-5-yl)piperidin-1-yl)-5-nitropyrimidin-4-yl oxime] | 19.43% |  |
| CC(=NOc1ncnc(N2CCC(c3nc(C(C)C)no3)CC2)c1[N+](=O)[O-])c1cccs1 [Example 28, 1-(thiophen-2-yl)ethanone O-6-(4-(3-isopropyl-1,2,4-oxadiazol-5-yl)piperidin-1-yl)-5-nitropyrimidin-4-yl oxime] | 33.4% |  |
| Cc1c(ON=C(c2ccc(F)cc2)c2ccc(F)cc2)ncnc1N1CCC(c2nc(C(C)C)no2)CC1 [Example 29, bis(4-fluorophenyl)methanone O-6-(4-(3-isopropyl-1,2,4-oxadiazol-5-yl)piperidin-1-yl)-5-methylpyrimidin-4-yl oxime] | 13.7% |  |
